Values of other authors in US20240216476A1, “COMBINATION OF BITTER RECEPTOR AGONIST AND GUT-SIGNALING COMPOUND” (AARDVARK THERAPEUTICS, INC., priority 2021, published 2024).
Read-outs that look alike come from different tables or passages of the source. Marks after values point to notes of the source that are not given here.

What was measured:
[1] = tested on: C57Bl/6J mice fed with high-fat diet; settings: alogliptin 0.03% (wt/wt) in diet for life span, cited from earlier work
ob/ob mice = settings: alogliptin 42.2 mg/kg/day 28 days, cited from earlier work
[2] = cited from earlier work; for Effect on Body Weight (placebo-adjusted change from baseline) / Effect on HbA1c (placebo-adjusted change from baseline): QD 24-26 weeks
C57BL/6 mice fed on HFD = settings: end of study, dulaglutide 0.6 mg/kg once weekly IP 12 weeks, liraglutide 0.3 mg/kg QD SC 38 days, cited from earlier work
[3] = in vivo; cited from earlier work
[4] = sitagliptin 0.004% in diet 12 weeks, vildagliptin 30 mg/kg/day 7 weeks
[5] = vildagliptin 30 mg/kg/day 7 weeks
[6] = sitagliptin 0.0018% in diet 12 weeks
[7] = semaglutide 3 mg, sitagliptin 100 mg, saxagliptin 2.5 mg, vildagliptin 50 mg, alogliptin 12.5 mg, linagliptin 5 mg
[8] = semaglutide 7 mg, sitagliptin 200 mg, saxagliptin 5 mg, vildagliptin 100 mg, alogliptin 25 mg
[9] = exenatide 24 nmol/kg QD IP 4 weeks

Cn1c(=O)cc(N2CCC[C@@H](N)C2)n(Cc2ccccc2C#N)c1=O [Alogliptin]
Control-adjusted Percent Change in HbA1c Level [1]: −8.8% | Control-adjusted Percent Change in Lipid Levels: LDL [1]: −16.4% in LDL | Control-adjusted Percent Change in Body Weight Gain [1, 4]: −32.6%* | Control-adjusted Percent Change in Fasting Blood Glucose [1, 4]: −10.1% | Control-adjusted Percent Change in Insulin Level [1, 4]: -47.9%* | Control-adjusted Percent Change in Lipid Levels: TC [1, 5]: −1.1% in TC | Control-adjusted Percent Change in Lipid Levels: TG [1, 5]: −19.2% in TG* | Control-adjusted Percent Change in HbA1c Level (ob/ob mice): −13%** | Control-adjusted Percent Change in Fasting Blood Glucose (ob/ob mice; [6]): −15.6% | Control-adjusted Percent Change in Insulin Level (ob/ob mice; [6]): +105%* * | Control-adjusted Percent Change in TG Level (ob/ob mice; [6]): −24.5% | HDL (mg/dL) ([2]; alogliptin 12.5 mg QD 26 weeks, placebo +1.3): HDL (mg/dL): +0.9 | LDL (mg/dL) ([2]; alogliptin 12.5 mg QD 26 weeks, placebo +4.6): LDL (mg/dL): −0.5 | TC (mg/dL) ([2]; alogliptin 12.5 mg QD 26 weeks, placebo +10.1): TC (mg/dL): −1.2 | TG (mg/dL) ([2]; alogliptin 12.5 mg QD 26 weeks, placebo +26.5): TG (mg/dL): −5.8 | Effect on Body Weight (placebo-adjusted change from baseline) [2, 7]: 12.5 mg: −0.27 kg | Effect on HbA1c (placebo-adjusted change from baseline) [2, 7]: 12.5 mg: −0.54% | Effect on Body Weight (placebo-adjusted change from baseline) [2, 8]: 25 mg: −0.4 kg | Effect on HbA1c (placebo-adjusted change from baseline) [2, 8]: 25 mg: −0.57%

Dulaglutide: fusion protein GLP-1 receptor agonist
Control-adjusted Percent Change in Insulin Level (C57BL/6 mice fed on HFD): −77%* | Control-adjusted Body Weight Gain (C57BL/6 mice fed on HFD; [9]): -8.1 g | Control-adjusted Percent Change in Body Weight (C57BL/6 mice fed on HFD; [9]): −15.9%* | Control-adjusted Percent Change in Fasting Blood Glucose (C57BL/6 mice fed on HFD; exenatide 24 nmol/kg QD IP 4 weeks, semaglutide 25 nmol/kg every two days SC 3 weeks): −16.3%* | Incidence of Hypoglycemic Episodes for Combination with Insulin (vs. Placebo) [3]: 14.7%* | Incidence of Hypoglycemic Episodes for Combination with Metformin (vs. Placebo) [3]: 0.7% | Incidence of Hypoglycemic Episodes for Combination with a Sulfonylurea (vs. Placebo) [3]: 3.3%
